Measurements from US20100311748A1, “HETEROCYCLIC AMIDES USEFUL FOR THE TREATMENT OF CANCER AND PSORIASIS” (ASTRAZENECA AB, priority 2007, published 2010).

System: Hedgehog pathway
Experiment: Hedgehog Pathway Cellular Differentiation Assay (alkaline phosphatase production in C3H10T1/2 cells with Shh ligand)
Format: cell-based
Conditions: 3 μM compound, Shh ligand conditioned media, 72 h, alkaline phosphatase
Summary of the method: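 C3H10T1/2 cells in DMEM/2% FBS with Shh-conditioned medium were treated 72 h with compound, threefold dilutions from 30 μM to 3 nM. After RIPA lysis, alkaline phosphatase was read with pNp (1 mg/mL, diethanolamine pH 9.8) at 30 °C, absorbance 405 nm. Percent inhibition and IC50 came from absorbance.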

In the case of `Cc1ccc(-c2ncc[nH]2)cc1NC(=O)c1ccc(OCc2cccc(OCCO)n2)cc1` [Example 122], the “% Inhibition at 3 μM” value is reported as 84.6%.

Same assay, conditions: Mus musculus, C3H 10T1/2, 3 μM compound, Shh ligand conditioned media, 72 h, alkaline phosphatase

Point of comparison: `Cc1ccc(-c2ncc[nH]2)cc1NC(=O)c1ccc(OCc2cccc(N(C)C)n2)cc1` [Example 125, N-(5-(1H-imidazol-2-yl)-2-methylphenyl)-4-((6-(dimethylamino)pyridin-2-yl)methoxy)benzamide], inhibition at 3 µM 76.7%. Against it:
- Cc1ccc(-c2ncc[nH]2)cc1NC(=O)c1ccc(OCc2cc(OCCN(C)C)ccn2)cc1 [Example 94, 4-({4-[2-(dimethylamino)ethoxy]pyridin-2-yl}methoxy)-N-[5-(1H-imidazol-2-yl)-2-methylphenyl]benzamide] — lower, 56.7%
- Cc1ccc(-c2ncc[nH]2)cc1NC(=O)c1ccc(OCc2cc(OCCN3CCCCC3)ccn2)cc1 [Example 95, N-[5-(1H-imidazol-2-yl)-2-methylphenyl]-4-{[4-(2-piperidin-1-ylethoxy)pyridin-2-yl]methoxy}benzamide] — lower, 47%
- Cc1ccc(-c2nccn2C)cc1NC(=O)c1ccc(OCc2cc(Oc3ccccc3)ccn2)cc1 [Example 96, N-[2-methyl-5-(1-methyl-1H-imidazol-2-yl)phenyl]-4-[(4-phenoxypyridin-2-yl)methoxy]benzamide] — higher, 79.8%
- CCOc1ccnc(COc2ccc(C(=O)Nc3cc(-c4nccn4C)ccc3C)cc2)c1 [Example 97, 4-[(4-ethoxypyridin-2-yl)methoxy]-N-[2-methyl-5-(1-methyl-1H-imidazol-2-yl)phenyl]benzamide] — higher, 81.9%
- Cc1ccc(-c2nccn2C)cc1NC(=O)c1ccc(OCc2cc(OCC3CC3)ccn2)cc1 [Example 98, 4-{[4-(cyclopropylmethoxy)pyridin-2-yl]methoxy}-N-[2-methyl-5-(1-methyl-1H-imidazol-2-yl)phenyl]benzamide] — higher, 78.4%
- Cc1ccc(-c2nccn2C)cc1NC(=O)c1ccc(OCc2ccc(Br)cc2C#N)cc1 [Example 99, 4-[(4-bromo-2-cyanobenzyl)oxy]-N-[2-methyl-5-(1-methyl-1H-imidazol-2-yl)phenyl]benzamide] — lower, 29.9%
- Cc1ccc(-c2nccn2C)cc1NC(=O)c1ccc(OCc2ccc(F)cc2C#N)cc1 [Example 100, 4-[(2-cyano-4-fluorobenzyl)oxy]-N-[2-methyl-5-(1-methyl-1H-imidazol-2-yl)phenyl]benzamide] — higher, 82.7%
- Cc1ccc(-c2nccn2C)cc1NC(=O)c1ccc(OCc2cc(F)ccc2C#N)cc1 [Example 101, 4-[(2-cyano-5-fluorobenzyl)oxy]-N-[2-methyl-5-(1-methyl-1H-imidazol-2-yl)phenyl]benzamide] — higher, 83.5%
- Cc1cc(F)c(-c2ncc[nH]2)cc1NC(=O)c1ccc(OCc2ccccn2)cc1 [Example 102, N-[4-fluoro-5-(1H-imidazol-2-yl)-2-methylphenyl]-4-(pyridin-2-ylmethoxy)benzamide] — higher, 87.1%
- Cc1nc(-c2cc(NC(=O)c3ccc(OCc4ccccn4)cc3)c(C)cc2F)c[nH]1 [Example 103, N-[4-fluoro-2-methyl-5-(2-methyl-1H-imidazol-4-yl)phenyl]-4-(pyridin-2-ylmethoxy)benzamide] — higher, 85.6%
- O=C(Nc1cc(-c2ncc[nH]2)ccc1Cl)c1ccc(OCc2ccccn2)cc1 [Example 105, N-[2-chloro-5-(1H-imidazol-2-yl)phenyl]-4-(pyridin-2-ylmethoxy)benzamide] — higher, 82.1%
- O=C(Nc1cc(-c2nc3ccccc3[nH]2)ccc1Cl)c1ccc(OCc2ccccn2)cc1 [Example 106, N-[5-(1H-benzimidazol-2-yl)-2-chlorophenyl]-4-(pyridin-2-ylmethoxy)benzamide] — higher, 81.6%
- Cc1ccc(-c2ncc[nH]2)cc1NC(=O)c1ccc(C#Cc2ccccn2)cc1 [Example 107, N-[5-(1H-imidazol-2-yl)-2-methylphenyl]-4-(pyridin-2-ylethynyl)benzamide] — higher, 92.3%
- Cc1ccc(-c2ncc[nH]2)cc1NC(=O)c1ccc(CCc2ccccn2)cc1 [Example 108, N-[5-(1H-imidazol-2-yl)-2-methylphenyl]-4-(2-pyridin-2-ylethyl)benzamide] — higher, 92.4%
- Cc1ccc(-c2ncc[nH]2)cc1NC(=O)c1ccc(/C=C/c2ccccn2)cc1 [Example 109, N-[5-(1H-imidazol-2-yl)-2-methylphenyl]-4-[(E)-2-pyridin-2-ylethenyl]benzamide] — higher, 91.3%
- Cc1ccc(-c2ncc[nH]2)cc1NC(=O)c1ccc(OC(C)c2ccccn2)cc1 (stereo not shown) [Example 110, N-[5-(1H-imidazol-2-yl)-2-methylphenyl]-4-(1-pyridin-2-ylethoxy)benzamide] — higher, 92.3%
- Cc1ccc(-c2ncc[nH]2)cc1NC(=O)c1ccc(OCc2ccccn2)nc1 [Example 111, N-[5-(1H-imidazol-2-yl)-2-methylphenyl]-6-(pyridin-2-ylmethoxy)pyridine-3-carboxamide] — lower, -0.1%
- Cc1ccc(-c2ncc[nH]2)cc1NC(=O)c1ccc(OCc2ccccn2)cn1 [Example 112, N-[5-(1H-imidazol-2-yl)-2-methylphenyl]-5-(pyridin-2-ylmethoxy)pyridine-2-carboxamide] — lower, 54.3%
- Cc1cc(C)c(-c2cn(C)cn2)cc1NC(=O)c1ccc(OCc2ccccn2)cn1 [Example 113, N-(2,4-dimethyl-5-(1-methyl-1H-imidazol-4-yl)phenyl)-5-(pyridin-2-ylmethoxy)picolinamide] — higher, 84.7%
- Cc1ccc(-c2c[nH]nn2)cc1NC(=O)c1ccc(OCc2ccccn2)cc1 [Example 114, N-(2-methyl-5-(1H-1,2,3-triazol-4-yl)phenyl)-4-(pyridin-2-ylmethoxy)benzamide] — lower, 73.2%
- Cc1ccc(-c2nccn2C)cc1NC(=O)c1ccc(OCc2cc(N3CCN(C)CC3)ccc2C#N)cc1 [Example 115, 4-(2-cyano-5-(4-methylpiperazin-1-yl)benzyloxy)-N-(2-methyl-5-(1-methyl-1H-imidazol-2-yl)phenyl)benzamide] — higher, 82.8%
- Cc1ccc(-c2nccn2C)cc1NC(=O)c1ccc(OCc2cc(N(C)CCN(C)C)ccc2C#N)cc1 [Example 116, 4-[(2-cyano-5-{[2-(dimethylamino)ethyl](methyl)amino}benzyl)oxy]-N-[2-methyl-5-(1-methyl-1H-imidazol-2-yl)phenyl]benzamide] — higher, 83.4%
- Cc1ccc(-c2ncc[nH]2)cc1NC(=O)c1ccc(NCc2ccccn2)cc1 [Example 117, N-(5-(1H-imidazol-2-yl)-2-methylphenyl)-4-(pyridin-2-ylmethylamino)benzamide] — lower, 68.8%
- Cc1ccc(-c2ncc[nH]2)cc1NC(=O)c1ccc(NC(C)c2ccccn2)cc1 (stereo not shown) [Example 118, N-[5-(1H-imidazol-2-yl)-2-methylphenyl]-4-[(1-pyridin-2-ylethyl)amino]benzamide] — lower, 75.4%
- Cc1ccc(-c2ncc[nH]2)cc1NC(=O)c1ccc(OCc2cccc(Br)n2)cc1 [Example 119, N-(5-(1H-imidazol-2-yl)-2-methylphenyl)-4-((6-bromopyridin-2-yl)methoxy)benzamide] — higher, 92.4%
- Cc1ccc(-c2ncc[nH]2)cc1NC(=O)c1ccc(OCc2ncccc2Br)cc1 [Example 120, 4-[(3-bromopyridin-2-yl)methoxy]-N-[5-(1H-imidazol-2-yl)-2-methylphenyl]benzamide] — higher, 78.3%
- Cc1ccc(-c2nccn2Cc2ncccc2Br)cc1NC(=O)c1ccc(OCc2ncccc2Br)cc1 [Example 121, 4-[(3-bromopyridin-2-yl)methoxy]-N-(5-{1-[(3-bromopyridin-2-yl)methyl]-1H-imidazol-2-yl}-2-methylphenyl)benzamide] — higher, 77.8%
- COc1cccc(COc2ccc(C(=O)Nc3cc(-c4ncc[nH]4)ccc3C)cc2)n1 [Example 123, N-(5-(1H-imidazol-2-yl)-2-methylphenyl)-4-((6-methoxypyridin-2-yl)methoxy)benzamide] — higher, 84.7%
- Cc1ccc(-c2ncc[nH]2)cc1NC(=O)c1ccc(OCc2cccc(OCCN(C)C)n2)cc1 [Example 124, N-(5-(1H-imidazol-2-yl)-2-methylphenyl)-4-((6-(2-(dimethylamino)ethoxy)pyridin-2-yl)methoxy)benzamide] — lower, 46.8%
- Cc1ccc(-c2ncc[nH]2)cc1NC(=O)c1ccc(OCc2cc(N3CCN(C)CC3)ccn2)cc1 [Example 126, N-[5-(1H-imidazol-2-yl)-2-methylphenyl]-4-{[4-(4-methylpiperazin-1-yl)pyridin-2-yl]methoxy}benzamide] — lower, 47.2%
- Cc1ccc(-c2ncc[nH]2)cc1NC(=O)c1ccc(OCc2cc(N(C)C)ccn2)cc1 [Example 127, 4-{[4-(dimethylamino)pyridin-2-yl]methoxy}-N-[5-(1H-imidazol-2-yl)-2-methylphenyl]benzamide] — lower, 76.3%
- Cc1ccc(-c2ncc[nH]2)cc1NC(=O)c1ccc(OCc2cccc(N3CCN(C)CC3)n2)cc1 [Example 128, N-(5-(1H-imidazol-2-yl)-2-methylphenyl)-4-((6-(4-methylpiperazin-1-yl)pyridin-2-yl)methoxy)benzamide] — higher, 81.5%
- Cc1ccc(-c2ncc[nH]2)cc1NC(=O)c1ccc(OCc2cccc(N3CCOCC3)n2)cc1 [Example 129, N-[5-(1H-imidazol-2-yl)-2-methylphenyl]-4-[(6-morpholin-4-ylpyridin-2-yl)methoxy]benzamide] — higher, 82.8%
- COc1ccc(COc2ccc(C(=O)Nc3cc(-c4ncc[nH]4)ccc3C)cc2)nc1 [Example 130, N-(5-(1H-imidazol-2-yl)-2-methylphenyl)-4-((5-methoxypyridin-2-yl)methoxy)benzamide] — higher, 91.9%
- Cc1ccc(-c2ncc[nH]2)cc1NC(=O)c1ccc(OCc2ccc(OCCO)cn2)cc1 [Example 131, N-(5-(1H-imidazol-2-yl)-2-methylphenyl)-4-((5-(2-hydroxyethoxy)pyridin-2-yl)methoxy)benzamide] — lower, 72.7%
